This assay relates to 266295-075-R-J1-PDC spheroid viability. Nature of the assay: Anticancer human tumor 266295-075-R-J1-PDC patient-derived head and neck squamous carcinoma cell line growth inhibition [POLQ]. The settings on record: spheroids with HUVEC and MSC; for viability, T/C: stronger effect = lower value. Put shortly:
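PDC + HUVEC + MSC complex spheroids; POLQ inhibitors ± partner drugs; top conc. at/near clinical Cmax, else 10 microM (SN-38 1 microM), half-log dilutions; 37 degrees C, 5% CO2.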

[1] abbreviates: curve of first compound, second compound 0.0316 µM.
[2] abbreviates: curve of first compound, second compound 0.1 µM.
[3] abbreviates: curve of first compound, second compound 0.316 µM.
The mark [4] stands for this setting: curve of first compound, second compound 1 µM.
Setting [5] is: curve of first compound, second compound 3.16 µM.
[6] abbreviates: curve of first compound, second compound 10 µM.

The structures appear in SMILES notation. “And” between values parts separate entries of the source, which are not always exact repeats. Identical values can stand only once.
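Also: spheroids exposed to compounds for seven days before readout.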

As for `CC(=O)O[C@H]1C(=O)[C@@]2(C)[C@H]([C@H](OC(=O)c3ccccc3)[C@]3(O)C[C@H](OC(=O)[C@H](O)[C@@H](NC(=O)c4ccccc4)c4ccccc4)C(C)=C1C3(C)C)[C@]1(OC(C)=O)CO[C@@H]1C[C@@H]2O` + Cc1cccc(N(C)C(=O)C2C(O)CCN2c2nc(C)cc(C(F)(F)F)c2C#N)c1, the half-inhibitory concentration (IC50) is, setting by setting: under setting [1], over 3 µM; under setting [2], over 3 µM; under setting [3], over 3 µM; under setting [4], over 3 µM; under setting [5], over 3 µM; under setting [6], over 3 µM. Further, the viability, T/C is 71.9% (second compound 0.0316 µM, first compound 0.00949 µM); 58.7% (second compound 0.0316 µM, first compound 0.03 µM); 62.5% (second compound 0.0316 µM, first compound 0.0949 µM); 80.5% (second compound 0.0316 µM, first compound 0.3 µM); 78.7% (second compound 0.0316 µM, first compound 0.949 µM); 60% (second compound 0.0316 µM, first compound 3 µM). Also, the viability, T/C (second compound 0.1 µM, first compound 0.00949 µM) is 71.7%; the viability, T/C (second compound 0.1 µM, first compound 0.03 µM) was 71%; the viability, T/C (second compound 0.1 µM, first compound 0.0949 µM) was 56.9%; the viability, T/C (second compound 0.1 µM, first compound 0.3 µM) is 74.7%; the viability, T/C (second compound 0.1 µM, first compound 0.949 µM) is 83.8%; the viability, T/C (second compound 0.1 µM, first compound 3 µM) is 51.8%. In addition, the viability, T/C was 100% (second compound 0.316 µM, first compound 0.00949 µM); 65.9% (second compound 0.316 µM, first compound 0.03 µM); 64% (second compound 0.316 µM, first compound 0.0949 µM); 69.2% (second compound 0.316 µM, first compound 0.3 µM); 71% (second compound 0.316 µM, first compound 0.949 µM); 55.4% (second compound 0.316 µM, first compound 3 µM). The viability, T/C by setting is: (second compound 1 µM, first compound 0.00949 µM) 70.8%; (second compound 1 µM, first compound 0.03 µM) 56.4%; (second compound 1 µM, first compound 0.0949 µM) 79.4%; (second compound 1 µM, first compound 0.3 µM) 68%; (second compound 1 µM, first compound 0.949 µM) 78.2%; (second compound 1 µM, first compound 3 µM) 62.7%. Besides, the viability, T/C was 93% (second compound 3.16 µM, first compound 0.00949 µM); 60.2% (second compound 3.16 µM, first compound 0.03 µM); 73.1% (second compound 3.16 µM, first compound 0.0949 µM); 69.1% (second compound 3.16 µM, first compound 0.3 µM); 81.5% (second compound 3.16 µM, first compound 0.949 µM); 61.9% (second compound 3.16 µM, first compound 3 µM). For the same compound, the viability, T/C by setting is: (second compound 10 µM, first compound 0.00949 µM) 83.8%; (second compound 10 µM, first compound 0.03 µM) 52.4%; (second compound 10 µM, first compound 0.0949 µM) 60.9%; (second compound 10 µM, first compound 0.3 µM) 68.1%; (second compound 10 µM, first compound 0.949 µM) 72.4%; (second compound 10 µM, first compound 3 µM) 62.8%.
For the compound `CC1COCCN1c1cc(C2(S(C)(=N)=O)CC2)nc(-c2ccnc3[nH]ccc23)n1` (stereo not given), the viability, T/C runs as follows: (compound 0.0316 µM) 92.3% and 97.5% and 86.5%; (compound 0.1 µM) 95.2% and 93.2% and 93.5%; (compound 0.316 µM) 89.9% and 85.6% and 97.6%; (compound 1 µM) 83.2% and 80% and 78.7%; (compound 3.16 µM) 73.2% and 87.5% and 76.5%; (compound 10 µM) 55.6% and 56% and 54.7%. In addition, the IC50 (curve of compound) is over 10 µM.
With `COc1cccc(OCCCN)c1-c1cc(Nc2cnc(C#N)cn2)n[nH]1` + Nc1ccc(C#CCN(C(=O)Cc2ncc(C(F)(F)F)cc2C(F)(F)F)c2ccc(F)cc2)nn1, the IC50 was over 1 µM under setting [1]; over 1 µM under setting [2]; over 1 µM under setting [3]; over 1 µM under setting [4]; over 1 µM under setting [5]; over 1 µM under setting [6]. In addition, the viability, T/C by setting is: (second compound 0.0316 µM, first compound 0.00316 µM) 89.6%; (second compound 0.0316 µM, first compound 0.01 µM) 110%; (second compound 0.0316 µM, first compound 0.0316 µM) 81.2%; (second compound 0.0316 µM, first compound 0.1 µM) 77.5%; (second compound 0.0316 µM, first compound 0.316 µM) 64.5%; (second compound 0.0316 µM, first compound 1 µM) 64.4%. In addition, the viability, T/C by setting is: (second compound 0.1 µM, first compound 0.00316 µM) 91.6%; (second compound 0.1 µM, first compound 0.01 µM) 106%; (second compound 0.1 µM, first compound 0.0316 µM) 84.1%; (second compound 0.1 µM, first compound 0.1 µM) 69.3%; (second compound 0.1 µM, first compound 0.316 µM) 72%; (second compound 0.1 µM, first compound 1 µM) 73.5%. The viability, T/C is, setting by setting: (second compound 0.316 µM, first compound 0.00316 µM) 106%; (second compound 0.316 µM, first compound 0.01 µM) 91.9%; (second compound 0.316 µM, first compound 0.0316 µM) 73.8%; (second compound 0.316 µM, first compound 0.1 µM) 76.1%; (second compound 0.316 µM, first compound 0.316 µM) 60.4%; (second compound 0.316 µM, first compound 1 µM) 71.2%. The viability, T/C reads like this: (second compound 1 µM, first compound 0.00316 µM) 99.2%; (second compound 1 µM, first compound 0.01 µM) 95.9%; (second compound 1 µM, first compound 0.0316 µM) 74.5%; (second compound 1 µM, first compound 0.1 µM) 66.5%; (second compound 1 µM, first compound 0.316 µM) 61.9%; (second compound 1 µM, first compound 1 µM) 60.8%. Moreover, the viability, T/C (second compound 3.16 µM, first compound 0.00316 µM) is 120%; the viability, T/C (second compound 3.16 µM, first compound 0.01 µM) is 101%; the viability, T/C (second compound 3.16 µM, first compound 0.0316 µM) was 73.2%; the viability, T/C (second compound 3.16 µM, first compound 0.1 µM) is 72.8%; the viability, T/C (second compound 3.16 µM, first compound 0.316 µM) was 70.2%; the viability, T/C (second compound 3.16 µM, first compound 1 µM) is 61%. For the same compound, the viability, T/C is, setting by setting: (second compound 10 µM, first compound 0.00316 µM) 94.6%; (second compound 10 µM, first compound 0.01 µM) 95%; (second compound 10 µM, first compound 0.0316 µM) 87.8%; (second compound 10 µM, first compound 0.1 µM) 67.3%; (second compound 10 µM, first compound 0.316 µM) 62.1%; (second compound 10 µM, first compound 1 µM) 68.9%.
For the compound `COc1cccc2c1C(=O)c1c(O)c3c(c(O)c1C2=O)CC(O)(C(=O)CO)CC3OC1CC(N)C(O)C(C)O1` (stereo not given), the viability, T/C was 75.4% and 85.8% and 98.2% (compound 0.0316 µM); 77% and 122% and 101% (compound 0.1 µM); 67.3% and 74% and 72.5% (compound 0.316 µM); 55.9% and 77.4% and 82.8% (compound 1 µM); 47.4% and 71.8% and 63.5% (compound 3.16 µM); 1.55% and 2.37% and 2.7% (compound 10 µM). The IC50 (curve of compound) is 2 µM and 4.15 µM and 3.85 µM.
For `COc1cc2cc(C(=O)CCC(=O)O)sc2cc1OC`, the viability, T/C (compound 0.0316 µM) was 96.8% and 81.4% and 99%; the viability, T/C (compound 0.1 µM) was 105% and 89.9% and 92.6%; the viability, T/C (compound 0.316 µM) is 108% and 91.4% and 97.7%; the viability, T/C (compound 1 µM) is 101% (2×) and 99.7%; the viability, T/C (compound 3.16 µM) was 87.9% and 109% and 115%; the viability, T/C (compound 10 µM) was 93.1% and 105% and 85.8%. Moreover, the IC50 (curve of compound) was over 10 µM.

By IC50 is commonly meant the concentration that gives 50% inhibition. By viability, T/C is commonly meant the ratio of treated to control.

(Values after PubChem BioAssay AID1963853 (Molecular Pharmacology Branch, DTP, NCI, 2024).)
